Data taken from US11419834B2, “Methods for treating diseases or infections caused by or associated with H. pylori using a halogenated salicylanilide” (Rhode Island Hospital, priority 2019, dated 2022).
≈ marks a conversion by molar mass, not a printed value. Entries after “also recorded” stand apart in the source; their conditions may differ.

Legend:
H. Pylori 49503 = assay: Broth microdilution assay, MIC; format: cell-based; settings: Helicobacter pylori; strain H. Pylori 49503
H. Pylori 43504 = assay: Broth microdilution assay, MIC; format: cell-based; settings: Helicobacter pylori; strain H. Pylori 43504
H. Pylori 51932 = assay: Broth microdilution assay, MIC; format: cell-based; settings: Helicobacter pylori; strain H. Pylori 51932
H. pylori (strain 60190) = assay: Effect of pH on MIC (broth microdilution); format: cell-based, Helicobacter pylori
Method: The pH was adjusted to acidic condition with 1 N HCl. The minimal bactericidal concentration (MBC) was determined by plating 5 μL of broth culture from the MIC assay onto Müller-Hinton agar (BD Biosciences) supplemented with 10% FBS. After 72 h, the lowest concentration at which colonies were not observed was reported as the MBC.

[1] = system: H. pylori bacteria (strain 60190); assay: Multi-step mutation frequency (serial passage resistance study); format: cell-based, Helicobacter pylori
Method: To determine whether H. pylori can develop resistance against niclosamide, bacterial cells were suspended in MHB with 10% FBS at OD600=0.06 in the presence of serially diluted niclosamide and incubated, as described in the antibiotic susceptibility assays sub-section. The standard antibiotics amoxicillin and clarithromycin were used as controls. From the highest drug concentration allowing visible growth at sub-MIC concentration, aliquots were diluted (1:40) into fresh medium. These were used to inoculate the second set of serial drug dilutions as described by Dalhoff et al. (Clin Infect Ds. 2001 Mar. 15; 32 Suppl, 1:S16-22). After a 3-day incubation, H. pylori bacteria (strain 60190) were passaged sequentially over 30 days and the OD was recorded.

[2] = system: AGS cells invaded by H. pylori; assay: Invasion, gentamicin protection assay; format: cell-based, Helicobacter pylori; settings: 2×MIC, 0.5 μg/mL, 20 hours, AGS cell lines
Method: The AGS (Gastric adenocarcinoma cell lines) cell line was used to examine inhibition of adhesion and invasion of H. pylori (strain 60190) by niclosamide, as described by Schmitt et al. (Front Cell Infect Microbiol. 2013; 3:93). The AGS cells were grown in Dulbecco's Modified Eagle Medium (DMEM, ex. Gibco), supplemented with 10% fetal bovine serum (Gibco) and 1% penicillin/streptomycin (Gibco) and maintained at 37° C. in 5% C02. Then, 5×10^5 cells in antibiotic and serum-free DMEM were seeded in 6-well plates 24 hours prior to infection. H. pylori bacteria at a multiplicity of infection (MOI)=100 were added and allowed to adhere to the surface of the AGS cells. Planktonic bacteria were removed after 2 hours and DMEM with niclosamide (2×MIC) was then added to the wells containing the AGS. The mammalian cells were lysed by 0.1% saponin after 20 hours of incubation and the adhered bacteria were then serially diluted, plated in Brucella agar supplemented with 10% FBS, and incubated as described above. A control arm of DMSO and a comparator using amoxicillin at a concentration of 0.1 μg/mL (10×MIC) was also assessed. […]

[3] = system: IL-8 secretion from MKN-28 cells co-cultured with H. pylori; assay: IL-8 secretion, real-time RT-PCR; format: cell-based; settings: 4×MIC, 1.0 μg/mL, 24 hour incubation, H. pylori infected MKN-28 cells
Method: Real-Time (RT-PCR) was carried out to determine whether niclosamide has an inhibitory role in IL-8 secretion. MKN-28 cells were co-cultured with H. pylori (MOI=100) in the presence or absence of a test compound. At 24 hours, RNA was isolated from the infected host cells. cDNA was synthesized using the Verso cDNA (Invitrogen) synthesis kit according to manufacturer instructions. Quantitative real-time reactions were carried out in a Bio-Rad iTaq universal SYBR (Bio-Rad, Hercules, Calif. USA) one-step kit and a CFX98 real-time PCR cycler as described by Zheng et al. (Future Med. Chem. 2018, February; 10(3):283-296). The relative gene expression was calculated from Cq values using a ΔΔCq method.

[4] = system: H. pylori vacA gene expression; assay: RT-PCR study on VacA toxin expression; format: cell-based, Helicobacter pylori; settings: sub-MIC level of 200 ng/mL, 3 days
H. pylori infection = assay: Galleria mellonella in vivo infection model; settings: 25 mg/kg, injected 2 hours after H. pylori inoculation
Method: Assays were performed as described by Giannouli et al. (BMC Microbiol. 2014 Aug. 27; 14:228), an alternative model host for the evaluation of antimicrobial agents against H. pylori infection. Twelve randomly selected G. mellonella larvae (Vanderhorst, Inc., St. Mary's, OH, USA) between 300-350 mg were used for each group in the experiment. H. pylori cells were washed with PBS and diluted to OD600 nm=0.3, before inoculation into G. mellonella larvae. A 10 μL inoculum was injected into the last left proleg using a 10 μL Hamilton syringe. After 2 hours, compounds were administered at into the last right proleg and the wax moths were incubate at 37° C. Niclosamide was administered at a concentration of 25 mg/kg. Clarithromycin administered at a concentration of 10 mg/kg was used as a comparator. Three control groups were included (1) injected with PBS only; (2) inoculated with H. pylori but treated with sham injections; and (3) no manipulation. G. mellonella survival was evaluated up to 120 hours. The surviving larvae were monitored every 24 hours and were considered dead if they were unresponsive to external stimuli (touch). Killing curves and differences in survival were analysed by the Kaplan-Meier method using GraphPad Prism version 6.04 (GraphPad Software, La Jolla, Calif., USA). Statistical analysis (Kruskal-Wallis test) was carried out using the same program.

Compound: O=C(Nc1ccc([N+](=O)[O-])cc1Cl)c1cc(Cl)ccc1O [Niclosamide, niclosamide]
- MIC (H. Pylori 49503): 0.25 µg/mL (≈ 0.764 µM)
- MIC (H. Pylori 43504): 0.125 µg/mL (≈ 0.382 µM)
- MIC (H. Pylori 51932): 0.5 µg/mL (≈ 1.53 µM)
- MIC (H. pylori (strain 60190); Helicobacter pylori, acidic pH, tested between pH 7.0 to 5.2, read-out: MIC in low pH): 0.25 µg/mL (≈ 0.764 µM)
- change of MIC at acidic pH compared to pH 7.0 (H. pylori (strain 60190); pH 7.0 to 5.2): remained the same
- development of H. pylori resistance ([1]; 30 day resistance studies): no H. pylori resistance to niclosamide developed
- change in MIC through at least 10 passages ([1]; at least 10 passages): remained constant
- increase in MIC during continuous passage ([1]; passaged sequentially over 30 days): remained unchanged
- reduction of intracellular CFU [2]: 3 log10 CFU
- effect on IL-8 secretion [3]: inhibited IL-8 secretion
- effect on VacA expression compared to housekeeping gene rpoB [4]: down-regulated vacA gene; also recorded: downregulates VacA expression
- survival of wax-moth larvae up to 120 hours (H. pylori infection): About 60%
